According to US20230322815A1, “NOVEL COMPOUNDS AND THERAPEUTIC USES THEREOF” (University of Huddersfield, priority 2020, published 2023):

What was measured:
[1] = test system: chick embryo; test: Embryonic toxicity, H460 in ovo study; assay type: in vivo, chick (White Leghorn); conditions: for embryo tolerability: all doses tested, no statistically significant difference to solvent control; for % Alive / % Dead / Alive (embryos at E18) / Dead (embryos at E18): H460 study
Experimental: (§1) 10^6 tumor cells (H460, HT29 or HCT116) were grafted onto the upper chorioallantoic membrane (CAM) of the developing chick embryo on embryonic day 9 (E9). Access to the upper CAM was through a small hole drilled through the eggshell of fertilized White Leghorn eggs (into the air sac) on E9 (15 eggs per experimental group).
(§2) 100 μl of freshly prepared experimental compound, vehicle control or standard-of-care (SoC) drug at their working concentrations were pipetted onto the tumor graft at E11, E13, E15 and E17. On day E18, the upper CAM (with tumor) was removed, washed by PBS buffer and then directly transferred in PFA (fixation for 48 hrs). After that, tumors were carefully cut away from normal CAM tissue and weighed.
(§3) Embryonic viability was checked daily. The number of dead embryos was also counted on E18, to evaluate treatment-induced embryo toxicity.

[2] = test system: chick embryo; test: Embryonic toxicity, HT29 in ovo study; assay type: in vivo, chick (White Leghorn); conditions: for % Alive / % Dead / Alive (embryos at E18) / Dead (embryos at E18): HT29 study; for embryo tolerability: dose escalation showing no increased embryonic toxicity
Experimental: as §1, §2, §3

[3] = test system: HT29 tumors; test: Chick embryo chorioallantoic membrane (CAM) assay, in ovo efficacy; assay type: in vivo, human tumor cells on chick embryo CAM; conditions: for dose giving statistically significant regression of tumor growth (mean tumor weight at E18), comparable to SoC: L2Zn3 26.6, 53.2, 106.4 μM, L2Cu3 23.8, 65.7, 131.46 μM, SoC doxorubicin; for HT29 tumor cell metastasis to the lower CAM: any of the tested doses, data not shown
Experimental: FIG. 23. Activity of [L2Cu3]^6+ and [L2Zn3]^6+ against primary HT29 tumors. The results presented represent the mean tumour weight ±SEM following treatment at 3 different doses of [L2Cu3]^6+ and [L2Zn3]^6+: L2Zn3 [1]=26.6 μM, L2Zn3 [2]=53.2 μM, L2Zn3 [3]=106.4 μM; L2Cu3 [1]=23.8 μM, L2Cu3[2]=65.7 μM, L2Cu3[3]=131.46 μM. SoC doxorubicin. Statistical analysis by one way ANOVA (*): 0.05≥p value >0.01; (**): 0.01≥p value >0.001; (***): 0.001≥p value; (****): 0.0001≥p value. Number per experimental group n=10-14.
[L2Cu3]^6+ and [L2Zn3]^6+ were evaluated at three different doses for in ovo anti-cancer activity, toxicity and anti-metastatic activity against tumors initiated from three different human cancer cell line models (H460, HT29, HCT116), in the chick embryo chorioallantoic membrane (CAM) assay.
Each compound was provided to the contract research organisation (CRO) Inovotion (La Tronche, France) conducting the in ovo study, as a powder pre-weighed in single vials (2 equivalents of ligand, 3 equivalents of metal; and stored at room temperature). Before use, this was then dissolved in DMSO to 50 mM to generate a stock solution and further freshly diluted in RPM11640 or McCoys aqueous cell culture media for administration.
A standard of care (SoC) drug for the particular tumour type was tested concurrently as a comparative control for in vivo efficacy and toxicity evaluation. A solvent control served as a negative control for both SoC and experimental compounds.
as §1, §2
On day E18, a 1 cm^2 portion of the lower CAM was collected (n=8 per group), stored at −20° C. and later processed to extract DNA. Samples were analysed for human genomic DNA (qPCR for Alu sequences) as a quantitative marker of tumor metastasis to the lower CAM.

[4] = test system: recombinant AMPK (AMPKα p-T172); test: Western blot of purified recombinant kinase after exposure to complex; assay type: biochemical, human; conditions: 50 μM complex, 4 hours, in the presence of ATP
Experimental: FIG. 10. Western blot analysis of purified recombinant Src and AMPK following exposure to [L2Zn3]^6+ and [L2Cu3]^6+. Purified enzymes were incubated with complexes (50 μM) for 4 hours in the presence of ATP prior to analysis.
Protein lysates and recombinant proteins were resolved on 15% SDS polyacrylamide gels. Proteins were electroblotted onto nitrocellulose membrane by wet transfer in 1×Tris Glycine buffer (Biorad) at 35 mA overnight at room temperature (Allison et al., 2014). After blocking of membranes, these were incubated with primary antibody overnight at 4° C. before addition of rabbit or mouse secondary antibody (HRP-conjugated) for 1 h at room temperature and development of blots by enhanced chemiluminescence. […] Quantification of signals was performed by densitometry using Image J software.
To investigate these hypotheses further, regulatory phospho-amino acids of two key kinases identified by the kinase screen, AMPK and Src, were analysed following incubation of the recombinant kinases with Zn^2+ or Cu^2+ complexes.

[5] = dose [1]: L2Zn3 54 μM, L2Cu3 42 μM
[6] = dose [2]: L2Zn3 108 μM, L2Cu3 84 μM
[7] = dose [3]: L2Zn3 216 μM, L2Cu3 168 μM
[8] = dose [1]: L2Zn3 26.6 μM, L2Cu3 23.8 μM
[9] = dose [2]: L2Zn3 53.2 μM, L2Cu3 65.7 μM
[10] = dose [3]: L2Zn3 106.4 μM, L2Cu3 131.46 μM

Row | SMILES | embryo tolerability [1] | % Alive [1, 5] | % Dead [1, 5] | Alive (embryos at E18) [1, 5] | Dead (embryos at E18) [1, 5] | % Alive [1, 6] | % Dead [1, 6] | Alive (embryos at E18) [1, 6] | Dead (embryos at E18) [1, 6] | % Alive [1, 7] | % Dead [1, 7] | Alive (embryos at E18) [1, 7] | Dead (embryos at E18) [1, 7] | % Alive [2, 8] | % Dead [2, 8] | Alive (embryos at E18) [2, 8] | Dead (embryos at E18) [2, 8] | % Alive [2, 9] | % Dead [2, 9] | Alive (embryos at E18) [2, 9] | also measured
1 | [Cu+2].[Cu+2].[Cu+2].c1ccc(-c2csc(NCCN(CCNc3nc(-c4ccccn4)cs3)CCNc3nc(-c4ccccn4)cs3)n2)nc1.c1ccc(-c2csc(NCCN(CCNc3nc(-c4ccccn4)cs3)CCNc3nc(-c4ccccn4)cs3)n2)nc1 [[L2Cu3]^6+] | well tolerated | 85.71% | 14.29% | 12 | 2 | 92.86% | 7.14% | 13 | 1 | 85.71% | 14.29% | 12 | 2 | 71.43% | 28.57% | 10 | 4 | 85.71% | 14.29% | 12 | Dead (embryos at E18) [2, 9]: 2; % Alive [2, 10]: 92.31%; % Dead [2, 10]: 7.69%; Alive (embryos at E18) [2, 10]: 12; Dead (embryos at E18) [2, 10]: 1; embryo tolerability [2]: well tolerated; dose giving statistically significant regression of tumor growth (mean tumor weight at E18), comparable to SoC [3]: highest tested dose; HT29 tumor cell metastasis to the lower CAM [3]: no reduction; AMPKα p-T172 levels by immunoblotting [4]: significantly reduced p-T172 levels
2 | [Zn+2].[Zn+2].[Zn+2].c1ccc(-c2csc(NCCN(CCNc3nc(-c4ccccn4)cs3)CCNc3nc(-c4ccccn4)cs3)n2)nc1.c1ccc(-c2csc(NCCN(CCNc3nc(-c4ccccn4)cs3)CCNc3nc(-c4ccccn4)cs3)n2)nc1 [[L2Zn3]^6+] | well tolerated | 92.86% | 7.14% | 13 | 1 | 76.92% | 23.08% | 10 | 3 | 90.91% | 9.09% | 10 | 1 | 85.71% | 14.29% | 12 | 2 | 92.86% | 7.14% | 13 | Dead (embryos at E18) [2, 9]: 1; % Alive [2, 10]: 92.86%; % Dead [2, 10]: 7.14%; Alive (embryos at E18) [2, 10]: 13; Dead (embryos at E18) [2, 10]: 1; embryo tolerability [2]: well tolerated; dose giving statistically significant regression of tumor growth (mean tumor weight at E18), comparable to SoC [3]: highest tested dose; HT29 tumor cell metastasis to the lower CAM [3]: no reduction; AMPKα p-T172 levels by immunoblotting [4]: significantly reduced p-T172 levels
